Activity calls are given as the source filed them.
What was measured:
[1] = biological target: T1, Estrogen receptor (Homo sapiens, UniProt P03372); assay: blockers of SRC-3 recruitment to ERα – biochemical, ELISA, streptavidin-HRP readout, orthogonal assay, confirmation (AID 1079)
T1 sequence (P03372 whole entry): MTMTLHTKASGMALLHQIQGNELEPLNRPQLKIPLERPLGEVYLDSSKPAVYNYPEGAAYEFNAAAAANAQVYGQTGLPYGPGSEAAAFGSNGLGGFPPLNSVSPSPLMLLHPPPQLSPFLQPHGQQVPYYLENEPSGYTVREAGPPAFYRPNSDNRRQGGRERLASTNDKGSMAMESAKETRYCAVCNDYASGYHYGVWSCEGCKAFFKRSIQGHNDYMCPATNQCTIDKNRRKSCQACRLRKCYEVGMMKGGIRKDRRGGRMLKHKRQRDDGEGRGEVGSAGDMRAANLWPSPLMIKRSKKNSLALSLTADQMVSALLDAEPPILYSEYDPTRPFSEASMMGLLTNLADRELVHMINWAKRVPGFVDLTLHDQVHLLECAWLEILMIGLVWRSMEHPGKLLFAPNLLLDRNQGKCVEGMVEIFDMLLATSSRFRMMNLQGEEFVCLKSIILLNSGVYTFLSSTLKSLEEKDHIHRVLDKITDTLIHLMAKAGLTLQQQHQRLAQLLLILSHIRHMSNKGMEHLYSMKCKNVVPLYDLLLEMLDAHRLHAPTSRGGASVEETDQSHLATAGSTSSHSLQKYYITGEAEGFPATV

[2] = biological target: Chaperone protein dnaK (Escherichia coli, UniProt C3TRK2); assay: E. coli DnaK binders, calorimetric Kd – biophysical, isothermal titration calorimetry, beta-domain, full-length DnaK, orthogonal assay for DnaK modulator project, SAR follow-up (AID 1495)
Sequence of Chaperone protein dnaK (C3TRK2 whole entry): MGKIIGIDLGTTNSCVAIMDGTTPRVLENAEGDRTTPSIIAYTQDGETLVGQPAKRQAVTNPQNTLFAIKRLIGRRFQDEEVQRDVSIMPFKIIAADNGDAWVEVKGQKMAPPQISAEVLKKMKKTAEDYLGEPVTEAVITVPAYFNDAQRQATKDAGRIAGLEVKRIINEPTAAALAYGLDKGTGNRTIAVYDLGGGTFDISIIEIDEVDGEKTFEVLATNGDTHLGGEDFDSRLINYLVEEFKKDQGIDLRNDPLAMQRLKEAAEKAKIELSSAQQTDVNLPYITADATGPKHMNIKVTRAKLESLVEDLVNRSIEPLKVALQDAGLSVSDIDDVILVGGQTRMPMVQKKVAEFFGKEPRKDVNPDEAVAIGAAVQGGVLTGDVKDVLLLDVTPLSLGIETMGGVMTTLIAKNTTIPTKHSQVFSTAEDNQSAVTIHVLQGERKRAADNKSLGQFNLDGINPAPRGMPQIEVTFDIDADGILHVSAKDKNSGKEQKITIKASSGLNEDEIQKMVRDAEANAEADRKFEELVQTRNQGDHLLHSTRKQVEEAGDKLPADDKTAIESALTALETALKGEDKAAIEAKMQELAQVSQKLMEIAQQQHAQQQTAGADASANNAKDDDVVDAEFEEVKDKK

[3] = biological target: Neuropeptide Y receptor type 2 (Homo sapiens, UniProt P49146); assay: Fluorescence-based cell-based high-throughput dose response assay for agonists of NPY-Y2. [Related pubchem assays: 1703 (Screening assay (CNGC inhibitors).), 1359 (Screening assay (NPY-Y2 potentiators or agonists).), 1304 (Screening assay (NPY-Y1 potentiators or agonists).), 1710 (Screening assay (NPY-Y2 agonists).), 1791 (Summary AID.)]; type: functional
Sequence of Neuropeptide Y receptor type 2 (P49146 whole entry): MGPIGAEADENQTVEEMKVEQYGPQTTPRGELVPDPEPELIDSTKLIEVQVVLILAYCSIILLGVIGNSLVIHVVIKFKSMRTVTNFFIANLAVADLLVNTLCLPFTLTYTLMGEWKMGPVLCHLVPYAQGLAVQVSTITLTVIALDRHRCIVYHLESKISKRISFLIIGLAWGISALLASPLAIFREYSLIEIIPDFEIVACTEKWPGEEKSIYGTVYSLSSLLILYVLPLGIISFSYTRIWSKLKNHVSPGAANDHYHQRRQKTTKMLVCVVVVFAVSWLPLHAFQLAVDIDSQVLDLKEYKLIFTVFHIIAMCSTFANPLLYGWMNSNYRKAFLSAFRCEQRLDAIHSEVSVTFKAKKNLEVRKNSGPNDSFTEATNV

[4] = NIH3T3 cell viability loss – ATP luminescence, mouse fibroblasts, counter-screen, dose response (AID 2010); type: functional, cell-based;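 also: cells exposed to compound for about 90 hours before reading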
[5] = system: HEK293; assay: Fluorescence-based counterscreen for potentiators or agonists of NPY-Y2: cell-based high-throughput dose response assay to identify inhibitors of cyclic nucleotide gated ion channel (CNGC) activity. In this assay, the parental HEK293 cell line transfected with a cyclic-nucleotide gated ion channel (CNGC)-based cAMP sensor is used to measure inhibition of isoproterenol-induced CNGC activity by test compound.; type: functional; settings: Homo sapiens;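 also: stimulus is 1 µM isoproterenol at EC100 plus PDE inhibitor Ro 20-1724 at 25 µM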
[6] = biological target: Neuropeptide Y receptor type 1 (Homo sapiens, UniProt P25929); assay: Fluorescence-based counterscreen for agonists of NPY-Y2: cell-based high-throughput dose response assay for agonists of NPY-Y1.; type: functional
[7] = Trypanosoma cruzi growth suppression in host cells – NIH3T3 host cells, beta-gal luminescence, confirmation (AID 2044); type: functional, cell-based;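 also: intracellular parasites grown in NIH/3T3 mouse fibroblasts as host cells; luminescent beta-galactosidase reporter signal from transgenic T. cruzi replicating inside host cells; inhibitors lower the luminescence signal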
[8] = biological target: T2, Heat shock factor protein 1 (Mus musculus, UniProt P38532); assay: decrease of HSF1-responsive luciferase luminescence – cell-based, NIH3T3, dose retest, confirmation (AID 2382); type: functional;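 also: NIH3T3 fibroblasts with HSF1-driven luciferase reporter stressed by proteasome inhibitor MG132; luminescence from HSF1-driven luciferase expression after 8 hours of MG132 stress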
T2 sequence (P38532 whole entry): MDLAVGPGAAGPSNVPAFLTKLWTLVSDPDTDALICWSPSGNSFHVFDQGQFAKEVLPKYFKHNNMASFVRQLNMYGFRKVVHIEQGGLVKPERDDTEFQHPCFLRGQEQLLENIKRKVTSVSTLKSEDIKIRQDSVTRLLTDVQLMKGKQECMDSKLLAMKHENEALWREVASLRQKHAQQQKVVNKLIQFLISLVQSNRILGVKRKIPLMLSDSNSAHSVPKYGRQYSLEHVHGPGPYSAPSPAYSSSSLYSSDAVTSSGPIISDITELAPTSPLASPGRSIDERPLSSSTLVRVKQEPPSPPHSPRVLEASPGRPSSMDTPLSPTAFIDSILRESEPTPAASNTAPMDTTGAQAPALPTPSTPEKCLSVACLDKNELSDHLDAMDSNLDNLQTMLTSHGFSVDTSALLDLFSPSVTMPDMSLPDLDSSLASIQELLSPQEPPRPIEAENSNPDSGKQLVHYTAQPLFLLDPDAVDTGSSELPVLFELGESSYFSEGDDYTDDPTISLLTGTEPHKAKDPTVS

[9] = biological target: Wee1-like protein kinase (Homo sapiens, UniProt P30291); assay: Dose Response Cell-based Assay for Inhibitors of Wee1 Degradation. [Related pubchem assays: 1410, 1321 ]; type: functional
Sequence of Wee1-like protein kinase (P30291 whole entry): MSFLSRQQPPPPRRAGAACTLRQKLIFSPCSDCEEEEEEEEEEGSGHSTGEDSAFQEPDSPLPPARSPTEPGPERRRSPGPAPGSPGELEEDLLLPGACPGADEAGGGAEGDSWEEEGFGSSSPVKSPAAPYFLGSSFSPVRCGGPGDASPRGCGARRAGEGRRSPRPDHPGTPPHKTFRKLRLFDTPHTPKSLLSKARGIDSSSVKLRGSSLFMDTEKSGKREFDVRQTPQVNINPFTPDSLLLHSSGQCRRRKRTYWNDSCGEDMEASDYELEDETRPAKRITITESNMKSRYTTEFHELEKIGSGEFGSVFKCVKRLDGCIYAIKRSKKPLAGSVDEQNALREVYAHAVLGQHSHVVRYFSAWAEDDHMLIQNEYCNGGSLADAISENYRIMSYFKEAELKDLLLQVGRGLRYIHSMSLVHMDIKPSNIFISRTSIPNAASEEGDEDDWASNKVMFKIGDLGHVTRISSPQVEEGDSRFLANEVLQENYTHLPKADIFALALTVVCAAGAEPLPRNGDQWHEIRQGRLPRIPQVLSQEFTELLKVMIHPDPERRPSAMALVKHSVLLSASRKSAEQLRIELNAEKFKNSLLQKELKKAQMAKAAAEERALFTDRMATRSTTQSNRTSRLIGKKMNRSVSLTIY

[10] = system: BJ; assay: cells; type: functional, cell-based; settings: Homo sapiens
[11] = biological target: E3 ubiquitin-protein ligase Mdm2 (Homo sapiens, UniProt Q00987); assay: MDM2-luc reporter signal enhancers, multi-concentration potency testing, MDM2 ubiquitin-protein ligase inhibitor program, whole-cell format, luminescence detection, 384-well microplate (AID 1394); type: functional;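 also: MDM2 E3 inhibitors raise luminescence so EC50 is for signal enhancement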
Sequence of E3 ubiquitin-protein ligase Mdm2 (Q00987 whole entry): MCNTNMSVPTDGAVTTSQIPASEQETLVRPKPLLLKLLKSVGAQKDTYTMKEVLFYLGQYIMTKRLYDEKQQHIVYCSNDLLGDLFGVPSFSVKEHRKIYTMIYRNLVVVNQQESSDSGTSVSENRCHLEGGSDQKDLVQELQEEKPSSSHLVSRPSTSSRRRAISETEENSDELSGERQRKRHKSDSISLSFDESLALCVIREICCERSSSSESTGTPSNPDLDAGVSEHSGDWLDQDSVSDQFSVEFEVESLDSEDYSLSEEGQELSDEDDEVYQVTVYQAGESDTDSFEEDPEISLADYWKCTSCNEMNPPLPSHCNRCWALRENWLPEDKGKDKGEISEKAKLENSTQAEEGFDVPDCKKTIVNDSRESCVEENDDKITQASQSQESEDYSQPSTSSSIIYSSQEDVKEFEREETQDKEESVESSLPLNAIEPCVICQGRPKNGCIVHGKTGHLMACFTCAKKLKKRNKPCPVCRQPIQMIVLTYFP

[12] = biological target: G2/mitotic-specific cyclin-B1 (Homo sapiens, UniProt P14635); assay: Counterscreen assay for inhibitors of Wee1 degradation: dose response cell-based assay to identify inhibitors of cyclin B degradation. [Related pubchem assays: 1410, 1321 ]; type: functional
Sequence of G2/mitotic-specific cyclin-B1 (P14635 whole entry): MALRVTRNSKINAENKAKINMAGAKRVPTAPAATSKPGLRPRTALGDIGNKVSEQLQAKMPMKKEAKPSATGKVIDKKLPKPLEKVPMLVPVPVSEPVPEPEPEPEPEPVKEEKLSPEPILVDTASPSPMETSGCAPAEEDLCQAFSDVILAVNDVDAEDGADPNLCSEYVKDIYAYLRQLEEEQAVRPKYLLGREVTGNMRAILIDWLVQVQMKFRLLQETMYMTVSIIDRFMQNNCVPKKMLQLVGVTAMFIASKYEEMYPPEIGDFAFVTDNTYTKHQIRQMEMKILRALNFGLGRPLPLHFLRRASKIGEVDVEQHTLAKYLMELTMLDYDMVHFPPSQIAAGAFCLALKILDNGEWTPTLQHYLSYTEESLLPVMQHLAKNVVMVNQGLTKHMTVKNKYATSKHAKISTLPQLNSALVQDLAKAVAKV

[13] = system: HeLa; assay: Cytotoxicity counterscreen assay for transcriptional activators of heat shock protein 70 (Hsp70). [Related pubchem assays: 1203, 1252 ]; type: functional; settings: Homo sapiens;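 also: cells exposed to compound for 16 hours before readout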
[14] = DRD fibroblast viability loss – cell-based, non-viral oncogenic, luminescence, dose response (AID 1934); type: functional; settings: Homo sapiens
[15] = system: BJ; assay: BJ-TERT fibroblast viability loss – cell-based, RAS-independent, luminescence, dose response (AID 1933); type: functional; settings: Homo sapiens
[16] = system: BJ; assay: BJ-TERT-LT-ST fibroblast viability loss – cell-based, RAS-independent, luminescence, dose response (AID 1935); type: functional; settings: Homo sapiens;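 also: BJ fibroblasts immortalized with TERT plus LT and ST oncogenes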
[17] = biological target: NS3 (Hepatitis C virus, UniProt A3EZJ3); assay: PubChem AID 2173; set-up: species or system Hepacivirus hominis
Sequence of NS3 (A3EZJ3 whole entry): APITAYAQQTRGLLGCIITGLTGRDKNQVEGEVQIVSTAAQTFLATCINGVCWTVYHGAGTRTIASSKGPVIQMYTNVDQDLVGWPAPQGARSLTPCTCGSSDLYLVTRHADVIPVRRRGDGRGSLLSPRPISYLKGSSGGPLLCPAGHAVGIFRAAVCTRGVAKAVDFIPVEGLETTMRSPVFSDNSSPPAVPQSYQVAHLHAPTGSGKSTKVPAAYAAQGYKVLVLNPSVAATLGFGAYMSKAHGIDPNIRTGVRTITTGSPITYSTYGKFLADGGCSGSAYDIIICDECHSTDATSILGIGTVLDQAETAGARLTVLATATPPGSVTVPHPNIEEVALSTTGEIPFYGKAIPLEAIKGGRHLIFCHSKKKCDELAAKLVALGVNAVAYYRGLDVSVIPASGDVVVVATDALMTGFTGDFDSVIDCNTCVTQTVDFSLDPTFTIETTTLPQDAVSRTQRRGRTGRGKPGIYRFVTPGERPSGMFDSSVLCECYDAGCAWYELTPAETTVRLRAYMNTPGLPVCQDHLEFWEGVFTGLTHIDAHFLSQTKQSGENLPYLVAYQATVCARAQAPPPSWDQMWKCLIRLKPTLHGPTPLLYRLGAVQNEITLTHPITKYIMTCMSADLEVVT

[18] = biological target: Heat shock protein HSP 90-alpha (Homo sapiens, UniProt P07900); type: functional, organism-based
[19] = biological target: Lysosomal acid glucosylceramidase (Homo sapiens, UniProt P04062); assay: Dose response cell-based high throughput screening assay to identify enhancers of beta-glucosidase activity. [Related pubchem assays: 784 ]; type: functional
Sequence of Lysosomal acid glucosylceramidase (P04062 whole entry): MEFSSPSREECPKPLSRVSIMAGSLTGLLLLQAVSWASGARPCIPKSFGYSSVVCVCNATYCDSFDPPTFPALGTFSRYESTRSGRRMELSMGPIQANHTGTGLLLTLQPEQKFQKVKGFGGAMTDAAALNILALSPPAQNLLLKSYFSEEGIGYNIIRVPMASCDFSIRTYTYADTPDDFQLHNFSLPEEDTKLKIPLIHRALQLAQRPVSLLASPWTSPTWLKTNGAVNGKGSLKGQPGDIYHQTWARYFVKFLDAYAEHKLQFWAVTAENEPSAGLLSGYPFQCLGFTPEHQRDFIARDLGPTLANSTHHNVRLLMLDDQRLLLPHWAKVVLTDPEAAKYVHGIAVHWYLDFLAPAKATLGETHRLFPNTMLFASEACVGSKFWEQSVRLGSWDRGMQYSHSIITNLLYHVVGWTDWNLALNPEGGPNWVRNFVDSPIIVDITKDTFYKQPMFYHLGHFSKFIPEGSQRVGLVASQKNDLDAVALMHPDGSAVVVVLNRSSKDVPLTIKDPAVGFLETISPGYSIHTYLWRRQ

[20] = A cytotoxicity screen of small molecule inhibitors of the PhoP region in Salmonella typhi identified in the primary screen. [Related pubchem assays: 1850, 1864, 1985 ]; type: functional
[21] = biological target: T3, Streptokinase A (Streptococcus pyogenes serotype M1, UniProt P10520); assay: viability-normalized secreted streptokinase activity reduction – plasminogen activation absorbance, OD405, dose response (AID 1914); type: functional, Streptococcus pyogenes M1 GAS;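 also: secreted streptokinase activity via plasminogen activation per viability signal from cell pellet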
T3 sequence (P10520 whole entry): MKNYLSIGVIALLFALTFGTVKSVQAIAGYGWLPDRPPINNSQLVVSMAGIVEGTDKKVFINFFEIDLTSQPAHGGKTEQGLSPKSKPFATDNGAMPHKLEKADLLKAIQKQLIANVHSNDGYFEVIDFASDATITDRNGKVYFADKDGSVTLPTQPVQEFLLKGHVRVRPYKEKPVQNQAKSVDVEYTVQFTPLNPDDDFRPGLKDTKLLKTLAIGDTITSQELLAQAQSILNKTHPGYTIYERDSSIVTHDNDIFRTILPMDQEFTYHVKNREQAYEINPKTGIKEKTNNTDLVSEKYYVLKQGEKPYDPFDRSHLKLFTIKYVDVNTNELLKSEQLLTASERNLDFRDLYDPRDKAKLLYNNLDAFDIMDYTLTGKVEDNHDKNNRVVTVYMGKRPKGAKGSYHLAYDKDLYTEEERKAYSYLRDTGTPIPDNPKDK

[22] = system: Streptococcus; assay: GAS UMAA2166 growth inhibition – luminescence, BacTiterGlo, counter-screen for streptokinase expression inhibitor project, dose response (AID 1915); type: functional, organism-based;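 also: potency for reduction of bacterial viability or growth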
[23] = luciferase reporter signal reduction – luminescence, H4-C neuroglioblastoma cells, dose response (AID 2458); type: functional, cell-based;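 also: H4 neuroglioblastoma cells stably carrying a luciferase reporter gene fusion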
[24] = system: INS1; assay: INS-1E survival protection against cytokine death – cell-based, luminescence, retest, dose response (AID 449756); type: functional; settings: Rattus norvegicus;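 also: cell death triggered by IL-1 beta plus TNF-alpha plus IFN-gamma mixture; protective hits raise ATP signal compared with cytokine alone wells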
[25] = microbe, parasite or virus in culture; type: functional; settings: Mycobacterium tuberculosis
[26] = HEK-293T viability loss after treatment – luminescence, T-cell screen hits, cytotoxicity control for TCR NF-kB inhibitor project, dose response (AID 489026); type: functional, cell-based;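 also: cells exposed to compound about 14 hours before the viability readout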
[27] = Vero E6 cell cytotoxicity, dose response, cytotoxicity control for non-replicating M. tuberculosis project, secondary assay (AID 492998); type: functional, VeroE6; settings: Vero C1008
[28] = alpha-synuclein stem-loop translation blockers – luminescence, H4 neuroglioblastoma cells, dose confirmation, confirmation (AID 2454); type: functional, cell-based;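 also: H4 neuroglioblastoma cells carrying an alpha-synuclein 5'UTR luciferase reporter; potency for inhibition of the luciferase signal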
[29] = cells; type: functional, cell-based
[30] = cells; type: functional
[31] = THP-1 cell cytotoxicity, dose response, cytotoxicity control for non-replicating M. tuberculosis project (AID 489025); type: functional
[32] = alpha-synuclein stem-loop luciferase translation blockers – H4 neuroglioma cells, luminescence, confirmation (AID 1988); type: functional, cell-based
[33] = system: Streptococcus sp. 'group A'; assay: Streptococcus pyogenes SK(-)GAS viability under kanamycin – luminescence, BacTiterGlo, confirmation, counter-screen for streptokinase expression inhibitor project, dose response (AID 1900); type: functional, organism-based
[34] = biological target: T4, Heat shock 70 kDa protein 1A (Homo sapiens, UniProt P0DMV8); assay: small molecules displacing fluorescent ligand from Hsp70 – biochemical, fluorescence polarization, primary screen (AID 583)
T4 sequence (P0DMV8 whole entry): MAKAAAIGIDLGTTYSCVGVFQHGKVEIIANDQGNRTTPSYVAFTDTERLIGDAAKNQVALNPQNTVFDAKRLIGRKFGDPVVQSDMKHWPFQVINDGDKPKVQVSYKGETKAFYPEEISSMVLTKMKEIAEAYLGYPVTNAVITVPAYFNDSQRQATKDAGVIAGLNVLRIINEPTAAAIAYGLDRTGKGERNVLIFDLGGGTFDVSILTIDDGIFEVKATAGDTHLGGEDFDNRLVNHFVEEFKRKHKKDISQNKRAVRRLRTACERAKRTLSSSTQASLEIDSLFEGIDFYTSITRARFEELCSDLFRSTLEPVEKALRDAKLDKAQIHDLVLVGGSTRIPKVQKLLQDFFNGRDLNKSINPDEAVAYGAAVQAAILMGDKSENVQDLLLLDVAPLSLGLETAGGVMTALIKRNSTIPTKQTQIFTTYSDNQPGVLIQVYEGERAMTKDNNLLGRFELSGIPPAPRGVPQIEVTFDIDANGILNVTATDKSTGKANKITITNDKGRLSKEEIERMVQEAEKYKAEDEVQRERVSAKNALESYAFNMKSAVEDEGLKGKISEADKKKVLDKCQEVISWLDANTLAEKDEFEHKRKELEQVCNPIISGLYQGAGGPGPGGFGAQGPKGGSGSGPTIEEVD

[35] = biological target: T4, Heat shock 70 kDa protein 1A; assay: small-molecule inhibition of Hsp70 – biochemical, TR-FRET (AID 786)
[36] = biological target: Peroxisome proliferator-activated receptor gamma/Nuclear receptor corepressor 2 (Homo sapiens, UniProt P37231+Q9Y618); type: functional
[37] = biological target: Photoreceptor-specific nuclear receptor (Homo sapiens, UniProt Q9Y5X4); type: functional;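 also: potency for compounds that break the NR2E3 corepressor complex and count as activators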
Sequence of Photoreceptor-specific nuclear receptor (Q9Y5X4 whole entry): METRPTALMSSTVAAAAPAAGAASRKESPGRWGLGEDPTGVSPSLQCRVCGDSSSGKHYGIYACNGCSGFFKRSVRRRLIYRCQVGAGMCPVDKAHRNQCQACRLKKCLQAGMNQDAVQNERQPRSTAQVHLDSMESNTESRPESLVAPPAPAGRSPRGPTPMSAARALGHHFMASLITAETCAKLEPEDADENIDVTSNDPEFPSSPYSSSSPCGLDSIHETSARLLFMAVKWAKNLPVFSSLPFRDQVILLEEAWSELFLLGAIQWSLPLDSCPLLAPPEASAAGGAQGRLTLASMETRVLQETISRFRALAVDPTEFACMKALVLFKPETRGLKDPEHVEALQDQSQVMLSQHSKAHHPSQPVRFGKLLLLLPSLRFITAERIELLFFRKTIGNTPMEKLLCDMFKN

Structure (SMILES): O=C(CCCn1c(=S)[nH]c2ccccc2c1=O)N1CCN(c2ccc(Cl)cc2)CC1
- IC50 [1]: 19.8 µM (not active)

Structure (SMILES): O=C(c1cccs1)N1CCN(CCO)CC1
- Kd [2]: 16.7 µM (inactive)

Structure (SMILES): COc1ccc2c(c1)c(CC(=O)Nc1nnc(C3CC3)s1)c(C)n2C(=O)c1ccc(Cl)cc1
- EC50 [3]: > 35.4 µM (not active)
- EC50 [4]: 5.09 µM (active)
- EC50 [5]: > 35.4 µM (not active)
- EC50 [6]: > 35.4 µM (not active)
- EC50 [7]: 2.28 µM (active)
- EC50 [8]: 21.6 µM (active)

Structure (SMILES): C=CS(=O)(=O)c1ccc(Oc2ccc(S(=O)(=O)C=C)cc2)cc1
- EC50 [9]: > 49.7 µM (not active)
- EC50 [10]: > 150 µM (inconclusive)
- EC50 [11]: 2.64 µM (active)
- EC50 [12]: > 5.53 µM (active)
- CC50 [13]: > 1.22 µM (not active)
- EC50 [14]: 3.83 µM (active)
- EC50 [15]: 2.24 µM (inconclusive)
- EC50 [16]: > 150 µM (inconclusive)

Structure (SMILES): O=C(N/N=C/c1cc(Cl)c(O)c(Cl)c1)c1cc2c(ccc3ccccc32)o1
- IC50 [17]: 4.26 µM (active)
- AC50 [18]: 4.54 µM (active)

Structure (SMILES): CCCCN(CC)CCCNC(=O)c1cc2cc3ccc(OC)cc3nc2o1
- EC50 [19]: > 50 µM (not active)

Structure (SMILES): Cc1ccsc1/C=N\NC(=O)c1ccc2c(c1)OCO2
- EC50 [20]: > 50 µM (active)

Structure (SMILES): CCOc1ccc(Nc2cc(C)nc(-n3nc(C)cc3C)n2)cc1
- EC50 [21]: > 150 µM (not active)
- EC50 [22]: > 150 µM (not active)
- EC50 [23]: 0.588 µM (active)
- AC50 [24]: 2.55 µM (active)
- CC50 [25]: 6.26 µM (active)
- IC50 [26]: > 80 µM (inactive)
- CC50 [27]: 1.14 µM (active)
- EC50 [28]: 0.88 µM (active)
- EC50 [29]: 0.969 µM (active)
- IC50 [30]: 0.56 µM (active)
- CC50 [31]: 0.357 µM (active)
- EC50 [32]: < 0.1 µM (active)
- EC50 [33]: 7.01 µM (active)

Structure (SMILES): Cc1ccc(OCCN2CCN(C(=O)CCC(=O)Nc3nnc(C)s3)CC2)cc1
- IC50 [34]: > 100 µM (not active)
- IC50 [35]: > 100 µM (not active)

Structure (SMILES): O=C(O)c1cc(-c2ccco2)nc2ccc(Br)cc12
- IC50 [36]: 1.58 µM (active)
- IC50 [37]: > 39.8 µM (not active)

Reference: ChEMBL document CHEMBL1201862, “PubChem BioAssay data set” (2004)
